Laboratory results reported in the supplement of paper PMC10307832.

Tests used:
Assay in all cases: relative viability (nuclei count vs DMSO), 5 days (fraction); higher = more cells survive
[1] = compound: CC1(C)CCC(CN2CCN(c3ccc(C(=O)NS(=O)(=O)c4ccc(NCC5CCOCC5)c([N+](=O)[O-])c4)c(Oc4cnc5[nH]ccc5c4)c3)CC2)=C(c2ccc(Cl)cc2)C1 [Venetoclax] + O=C(c1cc(Cc2n[nH]c(=O)c3ccccc23)ccc1F)N1CCN(C(=O)C2CC2)CC1 [Olaparib] (partner 8 µM)
Outline: (§1)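 One day after seeding in 1536-well plates, lung cancer cell lines were dosed by pin tool. Dosing was either single-drug or a fixed anchor-drug dose plus five library-drug doses (not always all listed) in √10 steps. After 5 days, nuclei were stained in one fix-and-stain step and counted on 4× images, and relative viability is the nuclei count of treated wells over that of vehicle wells, given as the median of duplicate plates.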

[2] = compound: Cn1cnc2c(F)c(Nc3ccc(Br)cc3Cl)c(C(=O)NOCCO)cc21 [Selumetinib] + O=C(CCCCCCC(=O)Nc1ccccc1)NO [Vorinostat] (partner 1 µM)
Outline: as §1

[3] = compound: CC1(C)CCC(CN2CCN(c3ccc(C(=O)NS(=O)(=O)c4ccc(NCC5CCOCC5)c([N+](=O)[O-])c4)c(Oc4cnc5[nH]ccc5c4)c3)CC2)=C(c2ccc(Cl)cc2)C1 [Venetoclax] + Nc1nc2[nH]cc(CCc3ccc(C(=O)N[C@@H](CCC(=O)O)C(=O)O)cc3)c2c(=O)[nH]1 [Pemetrexed] (partner 0.2 µM)
Outline: as §1

[4] = compound: Cn1cnc2c(F)c(Nc3ccc(Br)cc3Cl)c(C(=O)NOCCO)cc21 [Selumetinib] + CS(=O)(=O)N1CCN(Cc2cc3nc(-c4cccc5[nH]ncc45)nc(N4CCOCC4)c3s2)CC1 [Pictilisib] (partner 1 µM)
Outline: as §1

Cell Line	relative viability ([1]; first compound 0.01 µM)	relative viability ([1]; first compound 0.03162 µM)	relative viability ([1]; first compound 0.1 µM)	relative viability ([1]; first compound 0.3162 µM)	relative viability ([1]; first compound 1 µM)	relative viability ([2]; first compound 0.02 µM)	relative viability ([2]; first compound 0.06325 µM)	relative viability ([2]; first compound 0.2 µM)	relative viability ([2]; first compound 0.6325 µM)	relative viability ([3]; first compound 0.01 µM)	relative viability ([3]; first compound 0.03162 µM)	relative viability ([3]; first compound 0.1 µM)	relative viability ([3]; first compound 0.3162 µM)	relative viability ([3]; first compound 1 µM)	relative viability ([4]; first compound 0.02 µM)	relative viability ([4]; first compound 0.06325 µM)	relative viability ([4]; first compound 0.2 µM)	relative viability ([4]; first compound 0.6325 µM)
201T	0.822	0.868	0.811	0.846	0.829	0.929	0.876	0.877	0.814	0.283	0.309	0.33	0.329	0.366	0.641	0.693	0.625	0.677
A549	0.302	0.376	0.311	0.35	0.339	–	–	–	–	–	–	–	–	–	0.441	0.377	0.256	0.238
A-427	0.709	0.709	0.821	0.657	0.778	0.93	0.94	0.976	0.878	0.988	0.967	1.03	1.04	0.978	0.752	0.583	0.493	0.421
ABC-1	0.711	0.721	0.87	0.641	0.686	1.29	0.922	0.982	1.04	–	–	–	–	–	0.64	0.605	0.393	0.607
BEN	1.07	1.21	0.97	1.1	1.02	0.527	0.558	0.59	0.632	0.811	0.826	0.712	0.855	0.769	0.632	0.545	0.461	0.534
CAL-12T	0.675	0.715	0.732	0.709	0.634	0.81	0.724	0.569	0.507	0.965	1.23	1.14	1.22	1.19	0.415	0.394	0.408	0.395
COR-L23	0.331	0.473	0.313	0.382	0.314	0.554	0.537	0.485	0.456	0.181	0.177	0.189	0.199	0.197	0.84	0.699	0.784	0.713
COR-L 105	0.518	0.718	0.709	0.691	0.674	0.779	0.829	0.598	0.47	0.738	1.03	1.11	1.16	1.07	0.342	0.312	0.338	0.347
Calu-6	0.609	0.619	0.602	0.554	0.546	–	–	–	–	–	–	–	–	–	0.931	0.644	0.467	0.335
ChaGo-K-1	0.341	0.48	0.437	0.5	0.439	0.762	0.684	0.708	0.674	0.257	0.26	0.255	0.26	0.263	0.619	0.838	0.55	0.824
EBC-1	0.636	0.77	0.662	0.647	0.662	–	–	–	–	–	–	–	–	–	0.259	0.172	0.182	0.173
EKVX	0.93	0.908	0.817	0.855	0.819	0.557	0.531	0.446	0.384	0.471	0.402	0.351	0.427	0.35	0.395	0.391	0.317	0.243
EMC-BAC-2	0.503	0.554	0.5	0.497	0.471	0.928	0.682	0.607	0.865	0.406	0.457	0.407	0.467	0.417	0.556	0.53	0.523	0.492
EPLC-272H	0.63	0.697	0.803	0.786	0.83	0.312	0.343	0.3	0.256	0.361	0.316	0.356	0.412	0.36	0.299	0.253	0.245	0.208
H3255	0.626	0.576	0.545	0.597	0.566	0.671	0.752	0.846	0.797	0.584	0.615	0.526	0.603	0.562	0.434	0.462	0.38	0.36
HARA	0.803	0.993	–	0.814	0.822	0.428	–	0.365	0.249	0.216	0.247	–	0.329	0.284	0.285	0.391	0.31	0.15
HCC-15	0.607	0.754	0.75	0.68	0.668	0.656	0.586	0.435	0.393	0.24	0.236	0.217	0.217	0.201	0.509	0.31	0.25	0.207
HCC-44	1.05	1.01	0.919	0.971	0.983	1.1	1.05	1.06	1.07	0.667	0.673	0.63	0.649	0.656	0.562	0.525	0.379	0.337
HCC-78	0.718	0.78	0.879	0.871	0.686	0.433	0.358	0.413	0.482	0.896	0.875	0.965	0.935	0.881	0.0694	0.181	0.134	0.216
